Patent US9920010B2, “CXCR7 receptor modulators” (IDORSIA PHARMACEUTICALS LTD, priority 2013, dated 2018)

Target: T1, CXCR7 (Homo sapiens, UniProt P25106)
T1 construct: host or cells: CHO-K1 (PathHunter CHO-K1 CXCR7 b-arrestin cell line, stably transfected)
Experiment: PathHunter CHO-K1 CXCR7 b-arrestin recruitment assay (CXCR7 agonistic activity)
Assay type: cell-based
Conditions: PathHunter CHO-K1 CXCR7 b-arrestin cell line
Method in brief: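 Stable CHO-K1 line with C-terminally ProLink-tagged CXCR7 and β-arrestin 2–EA fusion; β-arrestin recruitment restores β-gal activity, read by chemiluminescence after 1 h RT detection. Cells seeded 24 h, starved in OPTIMEM 3–4 h, exposed to compounds 90 min at 37 °C in HBSS/HEPES/BSA. Geometric-mean EC50 from repeated measurements.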

T1 sequence (P25106 whole entry): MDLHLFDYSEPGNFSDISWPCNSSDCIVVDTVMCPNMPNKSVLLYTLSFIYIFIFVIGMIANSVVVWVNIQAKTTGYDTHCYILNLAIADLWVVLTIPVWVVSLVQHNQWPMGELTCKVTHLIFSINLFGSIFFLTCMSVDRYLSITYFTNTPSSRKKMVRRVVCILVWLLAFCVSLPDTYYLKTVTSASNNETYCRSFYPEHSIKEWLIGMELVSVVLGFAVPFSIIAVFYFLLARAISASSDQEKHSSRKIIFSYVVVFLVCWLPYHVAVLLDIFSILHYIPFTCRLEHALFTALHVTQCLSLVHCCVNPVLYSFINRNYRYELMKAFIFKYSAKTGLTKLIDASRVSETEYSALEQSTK
T1 sequence (P32121 whole entry partner): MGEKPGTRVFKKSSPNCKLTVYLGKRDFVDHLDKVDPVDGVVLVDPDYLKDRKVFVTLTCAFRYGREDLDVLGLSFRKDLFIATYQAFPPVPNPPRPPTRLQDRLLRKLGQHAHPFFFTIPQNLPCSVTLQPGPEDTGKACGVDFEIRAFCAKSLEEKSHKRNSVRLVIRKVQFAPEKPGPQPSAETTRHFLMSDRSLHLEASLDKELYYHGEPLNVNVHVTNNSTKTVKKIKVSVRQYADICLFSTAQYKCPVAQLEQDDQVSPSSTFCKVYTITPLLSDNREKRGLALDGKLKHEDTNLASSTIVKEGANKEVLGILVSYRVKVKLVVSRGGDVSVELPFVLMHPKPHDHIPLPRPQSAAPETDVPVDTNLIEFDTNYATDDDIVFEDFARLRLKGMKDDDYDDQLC

Structure (SMILES) | EC50 [nM]
CCN1CCc2cccc(NCC(=O)N(CCN(C)C(=O)OC(C)(C)C)Cc3ccccc3C(F)(F)F)c2C1 [compound 515] | 382
CC(C)N1CCc2c(cccc2NCC(=O)N(CCN(C)C)Cc2ccccc2)C1 [compound 109] | 73
CN(C)CCN(Cc1ccccc1Br)C(=O)CNc1cccc2c1CCN(CC1CC1)C2 [Example 234, N-(2-Bromo-benzyl)-2-(2-cyclopropylmethyl-1,2,3,4-tetrahydro-isoquinolin-5-ylamino)-N-(2-dimethylamino-ethyl)-acetamide] | 3
CN(C)CCN(Cc1ccccc1Cl)C(=O)CCc1cccc2c1CCN(CC1CC1)C2 [compound 156, N-(2-Chloro-benzyl)-3-(2-cyclopropylmethyl-1,2,3,4-tetrahydro-isoquinolin-5-yl)-N-(2-dimethylamino-ethyl)-propionamide] | 1
C=CCN1CCc2cccc(CCC(=O)N(CCN(C)C)Cc3ccccc3C(F)(F)F)c2C1 [compound 468, 3-(2-Allyl-1,2,3,4-tetrahydro-isoquinolin-8-yl)-N-(2-dimethylamino-ethyl)-N-(2-trifluoromethyl-benzyl)-propionamide] | 10
CNCCN(Cc1ccccc1C(F)(F)F)C(=O)CNc1cccc2c1CCN(C(=O)C1CCOC1)C2 (racemic) [compound 392] | 30
CN(C)CCN(Cc1ccccc1C(F)(F)F)C(=O)CNc1cccc2c1CCN(C(=O)C1CC1(F)F)C2 (racemic) [Example 570, rac-2-[2-(2,2-Difluoro-cyclopropanecarbonyl)-1,2,3,4-tetrahydro-isoquinolin-5-ylamino]-N-(2-dimethylamino-ethyl)-N-(2-trifluoromethyl-benzyl)-acetamide] | 14
CC(=O)N1CCc2c(cccc2NCC(=O)N(CCN(C)C)Cc2ccccc2)C1 [Example 108, 2-(2-Acetyl-1,2,3,4-tetrahydro-isoquinolin-5-ylamino)-N-benzyl-N-(2-dimethylamino-ethyl)-acetamide] | 52
CN(C)CCN(Cc1ncccc1Br)C(=O)CNc1cccc2c1CN(CC1CC1)CC2 [compound 486, N-(3-Bromo-pyridin-2-ylmethyl)-2-(2-cyclopropylmethyl-1,2,3,4-tetrahydro-isoquinolin-8-ylamino)-N-(2-dimethylamino-ethyl)-acetamide] | 5
Cc1cc(CN(CCN(C)C)C(=O)CNc2cccc3c2CCN(CC2CC2)C3)no1 [Example 269, 2-(2-Cyclopropylmethyl-1,2,3,4-tetrahydro-isoquinolin-5-ylamino)-N-(2-dimethylamino-ethyl)-N-(5-methyl-isoxazol-3-ylmethyl)-acetamide] | 54
CNCCN(Cc1ccccc1C(F)(F)F)C(=O)CNc1cccc2c1CCN(C(=O)CC(C)C)C2 [compound 391, N-(2-Methylamino-ethyl)-2-[2-(3-methyl-butyryl)-1,2,3,4-tetrahydro-isoquinolin-5-ylamino]-N-(2-trifluoromethyl-benzyl)-acetamide] | 49
CCN1CCc2c(cccc2NCC(=O)N(Cc2ccccc2C(F)(F)F)C2CCN(C)CC2)C1 [compound 137, 2-(2-Ethyl-1,2,3,4-tetrahydro-isoquinolin-5-ylamino)-N-(1-methyl-piperidin-4-yl)-N-(2-trifluoromethyl-benzyl)-acetamide] | 45
CNCCN(Cc1ncccc1C(F)(F)F)C(=O)CNc1cccc2c1CCN(C(=O)NC(C)(C)C)C2 [compound 432, 5-({[(2-Methylamino-ethyl)-(3-trifluoromethyl-pyridin-2-ylmethyl)-carbamoyl]-methyl}-amino)-3,4-dihydro-1H-isoquinoline-2-carboxylic acid tert-butylamide] | 42
O=C(/C=C/c1cccc2c1CCN(CC1CC1)C2)N(CCN1CCC(F)(F)CC1)Cc1ncccc1Cl [Example 334, (E)-N-(3-Chloro-pyridin-2-ylmethyl)-3-(2-cyclopropylmethyl-1,2,3,4-tetrahydro-isoquinolin-5-yl)-N-[2-(4,4-difluoro-piperidin-1-yl)-ethyl]-acrylamide] | 13
CNCCN(Cc1ncccc1C(F)(F)F)C(=O)CNc1cccc2c1CCN(C(=O)COC)C2 [compound 413, 2-[2-(2-Methoxy-acetyl)-1,2,3,4-tetrahydro-isoquinolin-5-ylamino]-N-(2-methylamino-ethyl)-N-(3-trifluoromethyl-pyridin-2-ylmethyl)-acetamide] | 8
CCN1CCc2cccc(NCC(=O)N(Cc3nc(C)cs3)Cc3ccccc3C(F)(F)F)c2C1 [compound 520] | 188
O=C(CNc1cccc2c1CCN(CC1CC1)C2)N(CCN1CCC(F)(F)CC1)Cc1ncccc1C(F)(F)F [Example 279, 2-(2-Cyclopropylmethyl-1,2,3,4-tetrahydro-isoquinolin-5-ylamino)-N-[2-(4,4-difluoro-piperidin-1-yl)-ethyl]-N-(3-trifluoromethyl-pyridin-2-ylmethyl)-acetamide] | 8
CN1CCC(N(Cc2ccccc2)C(=O)CNc2cccc3c2CCN(CC2CC2)C3)C1 (racemic) [Example 180, rac-N-Benzyl-2-(2-cyclopropylmethyl-1,2,3,4-tetrahydro-isoquinolin-5-ylamino)-N-(1-methyl-pyrrolidin-3-yl)-acetamide] | 8
CN(C)CCN(Cc1cccc(OC(F)(F)F)c1)C(=O)CNc1cccc2c1CCN(CC1CC1)C2 [Example 221, 2-(2-Cyclopropylmethyl-1,2,3,4-tetrahydro-isoquinolin-5-ylamino)-N-(2-dimethylamino-ethyl)-N-(3-trifluoromethoxy-benzyl)-acetamide] | 9
CN(C)CCN(Cc1ncccc1C(F)(F)F)C(=O)CNc1cccc2c1CCN(CC1CC1)C2 [Example 47, 2-(2-Cyclopropylmethyl-1,2,3,4-tetrahydro-isoquinolin-5-ylamino)-N-(2-dimethylamino-ethyl)-N-(3-trifluoromethyl-pyridin-2-ylmethyl)-acetamide] | 2
CC(C)C(=O)N1CCc2c(cccc2OCC(=O)N(CCN(C)C)Cc2ccccc2)C1 [compound 170] | 74
CNCCN(Cc1ccccc1C(F)(F)F)C(=O)CNc1cccc2c1CN(CC1CC1)CC2 [compound 384, 2-(2-Cyclopropylmethyl-1,2,3,4-tetrahydro-isoquinolin-8-ylamino)-N-(2-methylamino-ethyl)-N-(2-trifluoromethyl-benzyl)-acetamide] | 4
COCCN1CCc2c(cccc2NCC(=O)N(CCN(C)C)Cc2ncccc2C(F)(F)F)C1 [Example 371, N-(2-Dimethylamino-ethyl)-2-[2-(2-methoxy-ethyl)-1,2,3,4-tetrahydro-isoquinolin-5-ylamino]-N-(3-trifluoromethyl-pyridin-2-ylmethyl)-acetamide] | 16

Other lines, results leading:

EC50 [nM] | Structure (SMILES)
100 | CC(C)(O)CN(Cc1ncccc1Cl)C(=O)CNc1cccc2c1CN(CC1CC1)CC2 [compound 487]
2 | CN(C)CCN(Cc1ccccc1C(F)(F)F)C(=O)CNc1cccc2c1CCN(CC1CC1)C2 [Example 76, 2-(2-Cyclopropylmethyl-1,2,3,4-tetrahydro-isoquinolin-5-ylamino)-N-(2-dimethylamino-ethyl)-N-(2-trifluoromethyl-benzyl)-acetamide]
65 | CCN1CCc2cccc(NCC(=O)N(CCN(C)C)Cc3cccc(F)c3)c2C1 [compound 503]
26 | COC(=O)N1CCc2c(cccc2NCC(=O)N(CCN(C)C)Cc2ccccc2)C1 [Example 113, 5-({[Benzyl-(2-dimethylamino-ethyl)-carbamoyl]-methyl}-amino)-3,4-dihydro-1H-isoquinoline-2-carboxylic acid methyl ester]
10 | COCC(O)CN(Cc1ccccc1C(F)(F)F)C(=O)CNc1cccc2c1CCN(CC1CC1)C2 (stereo not drawn) [Example 223, 2-(2-Cyclopropylmethyl-1,2,3,4-tetrahydro-isoquinolin-5-ylamino)-N-(2-hydroxy-3-methoxy-propyl)-N-(2-trifluoromethyl-benzyl)-acetamide]
4 | CN(C)CCCN(Cc1ccccc1)C(=O)CNc1cccc2c1CCN(CC1CC1)C2 [Example 37, N-Benzyl-2-(2-cyclopropylmethyl-1,2,3,4-tetrahydro-isoquinolin-5-ylamino)-N-(3-dimethylamino-propyl)-acetamide]
24 | CCN1Cc2cccc(NCC(=O)N(CCN3CCCC3)Cc3ccccc3C(F)(F)F)c2CC1=O [Example 311, 2-(2-Ethyl-3-oxo-1,2,3,4-tetrahydro-isoquinolin-5-ylamino)-N-(2-pyrrolidin-1-yl-ethyl)-N-(2-trifluoromethyl-benzyl)-acetamide]
355 | CCN1CCc2cccc(NCC(=O)N(CCN(C)C)Cc3cc(C)on3)c2C1 [compound 535]
51 | CNCCN(Cc1ccccc1C(F)(F)F)C(=O)CNc1cccc2c1CC(=O)N(CC(C)C)C2 [compound 383]
9 | CNCCN(Cc1ncccc1C(F)(F)F)C(=O)CNc1cccc2c1CCN(C(=O)NC(C)C)C2 [compound 430, 5-({[(2-Methylamino-ethyl)-(3-trifluoromethyl-pyridin-2-ylmethyl)-carbamoyl]-methyl}-amino)-3,4-dihydro-1H-isoquinoline-2-carboxylic acid isopropylamide]
9 | CCN1CCc2cccc(NCC(=O)N(Cc3ccccc3C(F)(F)F)C3CCCN(C)C3)c2C1 (racemic) [compound 518]
17 | CCN1CCc2c(CCC(=O)N(CCN(C)C)Cc3ccccc3Cl)cccc2C1 [compound 155, N-(2-Chloro-benzyl)-N-(2-dimethylamino-ethyl)-3-(2-ethyl-1,2,3,4-tetrahydro-isoquinolin-5-yl)-propionamide]
3 | O=C(CNc1cccc2c1CCN(CC1CC1)C2)N(CCCN1CCCC1)Cc1ccccc1C(F)(F)F [Example 214, 2-(2-Cyclopropylmethyl-1,2,3,4-tetrahydro-isoquinolin-5-ylamino)-N-(3-pyrrolidin-1-yl-propyl)-N-(2-trifluoromethyl-benzyl)-acetamide]
